Results taken from patent US9101569B2, “Methods for the treatment of insulin resistance” (UNIVERSITE DE GENEVE, priority 2010, dated 2015).

Columns and labels:
[1] = system: enzymes involved in lipid metabolism; experiment: Tissue expression of lipid metabolism enzymes (real-time RT-PCR) after i.c.v. OT infusion; format: in vivo, rat
Protocol: To delineate the mechanisms responsible for the effect on peripheral metabolism, the expression of enzymes involved in lipid metabolism was analyzed in adipose tissues (epididymal white and interscapular brown adipose tissues). Total RNAs were extracted from frozen tissue using a single-step extraction with Trizol reagent (Sigma-Aldrich, Buchs, Switzerland). RNA integrity was assessed by electrophoresis on a 1% agarose gel and concentration was determined by spectrophotometry. An amount of 2.5 μg of total RNAs was used for RT using random hexamers (Microsynth, Geneva, Switzerland), dNTPs (Promega Corporation, Madison, Wis., USA), RNasin as an RNase inhibitor (Promega Corporation) and the Moloney Murine Leukemia Virus Reverse Transcriptase (M-MLV-RT) enzyme kit (Invitrogen, Basel, Switzerland). For quantitative PCR (qPCR), amplification of genes was performed from 6.25 or 12.5 ng cDNA, using the SYBR® green PCR Master Mix (Applied Biosystems, Warrington, UK) and an ABI7500 machine (Applied Biosystems, Foster City, Calif.). All the primers were designed (FIG. 9, Table 1) with the PrimerExpress software (http://phym.unige.ch/) and used at a concentration of 200 to 300 nM for qPCR. Results were normalized to the expression levels of the housekeeping gene, ribosomal protein S29 (RPS29).

HFD-induced obese rats [2] = experiment: Euglycemic-hyperinsulinemic clamps after i.c.v. OT infusion; format: in vivo, rat; conditions: 14-day i.c.v. 1.6 nmol/d
Protocol: (§1) Global and tissue-specific glucose utilization rates were measured by performing euglycemic-hyperinsulinemic clamps associated with the labeled 2-deoxyglucose technique as previously described (Vettor et al., 1994, Diabetologia, 37, 1202-1208). HFD-induced obese rats were overnight fasted and intraperitoneally anesthetized with Nembutal (75 mg/kg sodium pentobarbital; Abbott Laboratories, Chicago, Ill.). Total glucose utilization was measured during euglycemic-hyperinsulinemic clamps, as previously described (Vettor et al., 1994, above). At the end of the clamp, the in vivo insulin-stimulated glucose utilization index of individual tissues was determined by injecting a single bolus of labeled 2-deoxy-D-[1-3H]glucose (30 μCi; Amersham Biosciences UK, Little Chalfont, UK), as previously described (Vettor et al., 1994, above). Rats were killed by rapid decapitation, and tissues were rapidly removed, freeze-clamped, and stored at −80° C. Measurement of tissue concentration of 2-deoxy-d-[1-^3H]glucose-6-phosphate allowed calculation (Vettor et al., 1994, above) of the in vivo glucose utilization index of individual tissues and was expressed in ng/mg·min.

[3] = system: differentiated 3T3-L1 adipocytes; experiment: Lipid metabolism in differentiated 3T3-L1 adipocytes in vitro; format: cell-based, Murine; conditions: 24 h incubation, 5 μM OT
Protocol: The in vitro effect of OT on lipid metabolism in differentiated 3T3-L1 adipocytes was assayed as follows. Murine 3T3-L1 fibroblasts were differentiated towards a […] phenotype as previously described (Olson et al., 1997, Mol. Cell. Biol., 2425-2435). In brief, cells were cultured in Dulbecco's modified eagle medium (DMEM) with 4.5 g/l glucose supplemented with 10% heat-inactivated depleted calf serum (DCS) at 37° C./8% CO2. Cells were induced to differentiate, two days post confluence, by sequential incubations with: DMEM 4.5 g/l glucose, 10% fetal bovine serum (FCS) containing 1 μg/ml insulin, 0.25 μM dexamethasone and 0.5 mM isobutylmethylxanthane (IBMX) for 4 days; DMEM 4.5 g/l glucose, 10% FCS containing insulin alone for an additional 4 days; DMEM 4.5 g/l glucose, 10% FCS for 3-4 days. Differentiation was considered achieved when more than 90% of cells display an accumulation of large lipid droplets in their cytoplasm.

HFD-induced obese rats [4] = experiment: Plasma glycerol after subcutaneous OT infusion in HFD-induced obese rats; format: in vivo, rat; conditions: peripheral (s.c.) OT 50 nmol/day
Protocol: Another group of the above male Wistar rats were rendered obese as described above and were subcutaneously infused with saline or OT (NeoMPS®, Strasbourg, France) (50 nmol/day/rat) during 14 days.
To determine the effect of OT on peripheral metabolism, levels of plasma glucose, insulin, leptin, FFA, glycerol and TG were determined. Plasma glucose was measured by the glucose oxidase method (Glu, Roche Diagnostics GmbH, Rotkreuz, Switzerland). Plasma non-esterified fatty acid (NEFA) and triglyceride (TG) levels were determined using NEFA C and TG enzymatic PAP150 commercial kits from Wako Chemicals GmbH (Neuss, Germany) and Biomérieux (Marcy l'Etoile, France), respectively. Plasma OT levels were determined using an ELISA, as previously described (Pequeux et al., 2001, Scand. J. Clin. Lab. Invest., 61, 407-415). Plasma glycerol levels were measured using the free Glycerol Reagent (Sigma).

HFD-induced obese rats [5] = experiment: HOMA-IR and euglycemic-hyperinsulinemic clamps after subcutaneous OT infusion; format: in vivo, rat; conditions: s.c. 50 nmol/day, 14 days
Protocol: as §1, with “Rats were killed by rapid decapitation, and tissues were rapidly removed, freeze-clamped, and stored at −80° C. Measurement of tissue concentration of 2-deoxy-d-[1-^3H]glucose-6-phosphate allowed calculation (Vettor et al., 1994, above) of the in vivo glucose utilization index of individual tissues and was expressed in ng/mg·min.” left out
The beneficial effects of OT administration were assessed in the same rat model of high-fat diet induced obesity as in Example 1. […]
Insulinemia and glycemia were measured after an overnight fast before the euglycemic hyperinsulinemic clamps) and were used to calculate the “homeostasis model assessment of insulin resistance” (HOMA-IR). HOMA-IR was calculated as follows: (fasting serum insulin in mU/l)×(fasting blood glucose in mM)/22.5.
The effect of peripheral OT administration on high fat diet-induced insulin resistance was determined as described in Example 1.

[6] = system: enzymes involved in lipid metabolism; experiment: Tissue expression of lipid metabolism enzymes (real-time RT-PCR) after i.c.v. OT infusion; format: in vivo, rat; conditions: central OT infusion
HFD-induced obese rats [7] = experiment: High-fat diet-induced obesity rat model, subcutaneous infusion: body weight gain, food intake, body composition; format: in vivo; conditions: s.c. OT 50 nmol/day, 10 days, independent of food intake
[8] = interscapular brown adipose tissue (BAT), i.c.v. OT

CC[C@H](C)[C@@H]1NC(=O)[C@H](Cc2ccc(O)cc2)NC(=O)[C@@H](N)CSSC[C@@H](C(=O)N2CCC[C@H]2C(=O)N[C@@H](CC(C)C)C(=O)NCC(N)=O)NC(=O)[C@H](CC(N)=O)NC(=O)[C@H](CCC(N)=O)NC1=O [OT, Cys-Tyr-Ile-Gln-Asn-Cys-Pro-Leu-Gly (SEQ ID NO: 1)]
mRNA expression of PPAR-alpha and its target genes ([1]; BAT, OT infusion (16 nmol/d experiment)): significantly increased
Acaca mRNA expression ([1]; eWAT, i.c.v. 1.6 nmol/d): did not modify
Acadm mRNA expression ([1]; eWAT, i.c.v. 1.6 nmol/d): increased
Acox1 mRNA expression ([1]; eWAT, i.c.v. 1.6 nmol/d): increased
Dgat1 mRNA expression ([1]; eWAT, i.c.v. 1.6 nmol/d): did not modify
Ehhadh mRNA expression ([1]; eWAT, i.c.v. 1.6 nmol/d): increased
Fasn mRNA expression ([1]; eWAT, i.c.v. 1.6 nmol/d): did not modify
HSL mRNA expression ([1]; eWAT, i.c.v. 1.6 nmol/d): increased
Lpl mRNA expression ([1]; eWAT, i.c.v. 1.6 nmol/d): increase
Pnpla2 mRNA expression ([1]; eWAT, i.c.v. 1.6 nmol/d): increased
Scd1 mRNA expression ([1]; eWAT, i.c.v. 1.6 nmol/d): marked increase
Ucp3 mRNA expression ([1]; eWAT, i.c.v. 1.6 nmol/d): enhanced
PPAR-alpha mRNA ([1]; eWAT, i.c.v. 16 nmol/d): did not modify
expression of PPAR-alpha target genes (Acadm, Acox1, Ehhadh, Ucp3) ([1]; eWAT, i.c.v. 16 nmol/d, food intake-independent): increases
stimulatory effect on Scd1 mRNA expression ([1]; i.c.v. 1.6 nmol/d (lower dose)): 4.2 folds
stimulatory effect on Scd1 mRNA expression ([1]; i.c.v. 16 nmol/d): 5.6 folds
PPAR-alpha expression [1, 8]: significantly increased
expression of the main enzymes involved in fatty acid β-oxidation [1, 8]: significantly increased
expression of genes involved in fatty acid β-oxidation ([1]; skeletal muscle, central OT infusion): did not modify
glucose uptake in epididymal WAT (HFD-induced obese rats [2]): significant increase
glucose uptake in inguinal WAT (HFD-induced obese rats [2]): significant increase
glucose infusion rate (GIR) (HFD-induced obese rats [2]; compared to saline): significant increases
glucose utilization index, red gastrocnemius (HFD-induced obese rats [2]; compared to saline): significant increases
glucose utilization index, red quadriceps (HFD-induced obese rats [2]; compared to saline): significant increases
glucose utilization index, soleus (HFD-induced obese rats [2]; compared to saline): significant increases
OEA content [3]: increased
PPAR-alpha mRNA expression [3]: stimulatory effect
mRNA expression of all the lipid metabolism-related genes affected by central OT infusion [3]: increased
Scd1 mRNA expression ([3]; relative to effect in centrally infused rats): less marked
plasma glycerol levels (HFD-induced obese rats [4]): increased
glucose infusion rate (GIR) (HFD-induced obese rats [5]): significantly increased
HOMA-IR (HFD-induced obese rats [5]; compared to saline, not observed in pair-fed group): lower
HSL at the protein level [6]: stimulatory effect
expression of genes involved in fatty acid β-oxidation ([6]; liver): did not modify
fat mass (QMR) (HFD-induced obese rats [7]): significant decrease
percent lean body mass (QMR) (HFD-induced obese rats [7]): increase
